Source: paper PMC4055595, “Pharmacokinetic Compatibility of Ginsenosides and Schisandra Lignans in Shengmai-san: From the Perspective of P-Glycoprotein” (PLoS ONE, 2014)
Blank lines part the entries; values can stand above or below the compound they belong to.

Experiments:
[1] = target: human MDR1-encoded P-gp (L-MDR1 cells) (Homo sapiens, UniProt P08183); assay: Uptake (intracellular concentration) of digoxin and ginsenosides in L-MDR1 cells; format: in vitro ADME
Experimental: LLC-PK1 cells, a cell line lacking P-gp, and the derived cell line L-MDR1, which over-express human MDR1-encoded P-gp, were grown in minimum essential medium with supplements at 37°C, 5% CO2, and 95% humidity. LLC-PK1 and L-MDR1 cells were seeded at a density of 12×10^6 cells per 150-cm^2 flask and grown for 7 days in medium 199 supplemented with 2 mM glutamine, 10% fetal bovine serum, 10 mg/500 mL of streptomycin, and 10,000 IU/500 mL of penicillin. To ensure a constant expression level of transport protein, L-MDR1 cells were grown in the presence of 640 nM vincristine. Cells were grown as monolayer on polycarbonate membrane filters (Transwell; Costar Corporation, Cambridge, MA) as outlined previously. Transepithelial resistance was measured in each well using a Millicell ERS ohmmeter (Millipore, Bedford, MA); wells registering a resistance of 200 ohms or greater, after correcting for the resistance obtained in control blank wells, were used in the transport experiments.
LLC-PK1 and L-MDR1 cells were incubated with SLE (2.0 and 10.0 µg/mL) or verapamil (10 µM) for 1.0 h, and then were washed to discard SLE or verapamil before adding 100 µg/mL of GE. The accumulation of GE lasted for 2 h, and the intracellular concentrations of ginsenosides were measured by LC/MS. All experiments were conducted in triplicate.

[2] = Rat plasma pharmacokinetics after 10-day vehicle/SLE and digoxin or GE; format: in vivo, Sprague-Dawley rats; conditions: for AUC(0-inf): read-out: AUCINF_obs; for MRT inf: read-out: MRTINF_obs
Experimental: This study was carried out in strict accordance with the recommendations in the Guide for the Care and Use of Laboratory Animals of the National Institutes of Health. The protocol was approved by the Committee on the Ethics of Animal Experiments of the China Pharmaceutical University. All surgery was performed under sodium pentobarbital anesthesia, and all efforts were made to minimize suffering. […] The rats were fed with standard laboratory food and water and fasted overnight but with free access to water before the test. To evaluate the effect of long-term treatment with SLE on the pharmacokinetics of ginsenosides, 24 rats were also divided into four groups (group I∼ group IV) with 6 animals each. […] On the 11th day, digoxin was administered intragastrically to rats (group I and group II) at a single dose of 0.5 mg/kg, GE was administered intragastrically to rats (group III and group IV) at a single dose of 120 mg/kg. […] Plasma was obtained by centrifugation at 5000 g for 10 min and stored at −20°C before analysis. The plasma / cell samples were extracted using a liquid–liquid extraction technique. To each tube containing 100 µL plasma, 10 µL internal standard (digoxin, 1.0 µg/mL) and 1.0 mL of n-butanol were added. The mixture was then vortex-extracted for 2 min, and centrifuged for 10 min at 10,000 g. […] The plasma concentration-time curves of ginsenosides in rats were obtained by plotting the mean plasma concentrations versus time. Pharmacokinetic parameters were calculated using the WinNonlin 6.3 program (Pharsight Inc., Mountain View, CA). The elimination half-life (t 1/2) value was calculated as 0.693/β, where β is the elimination rate constant calculated from the terminal linear portion of the log plasma concentration-time curve. The total areas under the plasma concentration- time curve from time 0 to the last quantifiable time point (AUC0-t) and from time 0 to infinity (AUC0-∞) were calculated using the log trapezoidal rule. [drawing 3] The maximum plasma concentrations (C max) for ginsenosides were obtained by visual inspection of the plasma concentration-time curve, whereas the initial drug concentration (the extrapolated concentration at zero time) of the drug after intravenous injection was calculated by back-extrapolation of the plasma concentration-time curve to the y-axis.

[3] = Rat plasma pharmacokinetics after single-dose vehicle/SLE and digoxin or GE; format: in vivo, Sprague-Dawley rats; conditions: for AUC(0-inf): read-out: AUCINF_obs; for MRT inf: read-out: MRTINF_obs
Experimental: This study was carried out in strict accordance with the recommendations in the Guide for the Care and Use of Laboratory Animals of the National Institutes of Health. The protocol was approved by the Committee on the Ethics of Animal Experiments of the China Pharmaceutical University. All surgery was performed under sodium pentobarbital anesthesia, and all efforts were made to minimize suffering. Female healthy Sprague-Dawley rats (200±20 g) were purchased from the Laboratory Animal Center of Peking University Health Science Center (Beijing, PR China) and kept in an environmentally controlled breeding room for at least 3 days before experimentation. The rats were fed with standard laboratory food and water and fasted overnight but with free access to water before the test. To evaluate the effect of single treatment of SLE on the pharmacokinetics of ginsenosides, 24 rats were divided into four groups (group I ∼ group IV) averagely. […] In group II (control group): the rats received a single dose of vehicle (0.5% CMC-Na), and digoxin (0.5 mg/kg) was also given to the rats by intragastric administration. […] In group IV (control group): the rats received a single dose of vehicle (0.5% CMC-Na), and GE (120 mg/kg) was also given to the rats by gavage. […] Plasma was obtained by centrifugation at 5000 g for 10 min and stored at −20°C before analysis. The plasma / cell samples were extracted using a liquid–liquid extraction technique. To each tube containing 100 µL plasma, 10 µL internal standard (digoxin, 1.0 µg/mL) and 1.0 mL of n-butanol were added. The mixture was then vortex-extracted for 2 min, and centrifuged for 10 min at 10,000 g. […] The plasma concentration-time curves of ginsenosides in rats were obtained by plotting the mean plasma concentrations versus time. Pharmacokinetic parameters were calculated using the WinNonlin 6.3 program (Pharsight Inc., Mountain View, CA). The elimination half-life (t 1/2) value was calculated as 0.693/β, where β is the elimination rate constant calculated from the terminal linear portion of the log plasma concentration-time curve. The total areas under the plasma concentration- time curve from time 0 to the last quantifiable time point (AUC0-t) and from time 0 to infinity (AUC0-∞) were calculated using the log trapezoidal rule. [drawing 3] The maximum plasma concentrations (C max) for ginsenosides were obtained by visual inspection of the plasma concentration-time curve, whereas the initial drug concentration (the extrapolated concentration at zero time) of the drug after intravenous injection was calculated by back-extrapolation of the plasma concentration-time curve to the y-axis.

[4] = female, Sprague-Dawley, rat, plasma, po, rats, SLE 500 mg/kg ig once a day for 10 days, day 11 digoxin 0.5 mg/kg or GE 120 mg/kg ig
[5] = female, Sprague-Dawley, rat, plasma, po, rats, control: vehicle once a day for 10 days, day 11 digoxin 0.5 mg/kg or GE 120 mg/kg ig
[6] = rats, SLE 500 mg/kg ig once a day for 10 days, day 11 digoxin 0.5 mg/kg or GE 120 mg/kg ig
[7] = rats, control: vehicle once a day for 10 days, day 11 digoxin 0.5 mg/kg or GE 120 mg/kg ig
[8] = female, Sprague-Dawley, rat, plasma, po, rats, control: single vehicle, 2 h later digoxin 0.5 mg/kg or GE 120 mg/kg ig
[9] = female, Sprague-Dawley, rat, plasma, po, rats, single SLE 500 mg/kg ig, 2 h later digoxin 0.5 mg/kg or GE 120 mg/kg ig
[10] = rats, single-dose SLE 500 mg/kg vs vehicle, GE ig
[11] = female, Sprague-Dawley, rat, in vivo, po
[12] = female, Sprague-Dawley, rat, in vivo, po, Tmax
[13] = female, Sprague-Dawley, rat, in vivo, po, t1/2

Chain of human MDR1-encoded P-gp (L-MDR1 cells) (P08183 whole entry): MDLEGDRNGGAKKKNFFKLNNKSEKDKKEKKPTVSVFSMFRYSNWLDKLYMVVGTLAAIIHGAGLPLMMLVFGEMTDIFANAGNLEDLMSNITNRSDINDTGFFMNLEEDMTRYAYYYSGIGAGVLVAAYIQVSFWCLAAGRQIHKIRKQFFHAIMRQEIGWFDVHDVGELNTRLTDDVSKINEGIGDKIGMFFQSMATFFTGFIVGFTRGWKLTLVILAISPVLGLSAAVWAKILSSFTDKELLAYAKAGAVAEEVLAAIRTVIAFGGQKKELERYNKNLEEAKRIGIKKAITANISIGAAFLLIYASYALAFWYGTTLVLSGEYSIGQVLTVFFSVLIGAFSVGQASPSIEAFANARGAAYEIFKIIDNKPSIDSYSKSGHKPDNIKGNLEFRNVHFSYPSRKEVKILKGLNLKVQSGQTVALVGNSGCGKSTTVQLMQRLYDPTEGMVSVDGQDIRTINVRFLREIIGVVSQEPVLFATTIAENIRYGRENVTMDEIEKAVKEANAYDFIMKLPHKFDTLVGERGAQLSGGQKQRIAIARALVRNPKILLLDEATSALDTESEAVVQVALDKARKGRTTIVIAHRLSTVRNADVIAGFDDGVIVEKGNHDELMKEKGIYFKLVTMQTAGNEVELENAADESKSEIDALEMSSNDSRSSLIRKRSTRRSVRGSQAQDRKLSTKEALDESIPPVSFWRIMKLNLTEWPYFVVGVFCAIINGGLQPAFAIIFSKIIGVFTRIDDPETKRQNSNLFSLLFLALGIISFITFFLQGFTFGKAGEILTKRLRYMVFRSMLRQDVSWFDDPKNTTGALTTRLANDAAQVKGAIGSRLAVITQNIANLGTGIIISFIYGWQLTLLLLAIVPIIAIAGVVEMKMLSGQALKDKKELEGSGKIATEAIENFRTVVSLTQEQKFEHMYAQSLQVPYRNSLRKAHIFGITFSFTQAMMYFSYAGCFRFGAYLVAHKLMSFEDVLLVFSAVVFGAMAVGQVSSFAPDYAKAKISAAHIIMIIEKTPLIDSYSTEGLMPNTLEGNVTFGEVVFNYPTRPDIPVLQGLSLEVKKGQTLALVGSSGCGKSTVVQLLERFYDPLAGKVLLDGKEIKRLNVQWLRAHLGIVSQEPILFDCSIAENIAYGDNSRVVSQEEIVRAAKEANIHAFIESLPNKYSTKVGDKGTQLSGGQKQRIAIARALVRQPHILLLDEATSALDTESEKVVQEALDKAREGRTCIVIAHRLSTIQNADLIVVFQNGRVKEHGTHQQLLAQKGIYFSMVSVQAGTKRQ

Increase of intracellular concentration by SLE ([1]; 2.0 µg/mL SLE): 2.9 fold
Increase of intracellular concentration by SLE ([1]; 10.0 µg/mL SLE): 5.1 fold
AUC [2, 4]: 25600 ± 1300 ng·h/mL
Cmax [2, 4]: 736 ± 143 ng/mL
AUC(0-inf) [2, 4]: 27000 ± 2380 ng·h/mL
MRT inf [2, 4]: 33.5 ± 7.91 h
Tmax ([2]; female, Sprague-Dawley, rat, plasma, po, rats, SLE 500 mg/kg ig once a day for 10 days, day 11 digoxin 0.5 mg/kg or GE 120 mg/kg ig, read-out: Tmax): 9.6 ± 2.19 h
half-life ([2]; female, Sprague-Dawley, rat, plasma, po, rats, SLE 500 mg/kg ig once a day for 10 days, day 11 digoxin 0.5 mg/kg or GE 120 mg/kg ig, read-out: t1/2 (converted)): 19.3 ± 8.29 h
AUC [2, 5]: 14100 ± 5070 ng·h/mL
Cmax [2, 5]: 430 ± 135 ng/mL
AUC(0-inf) [2, 5]: 14300 ± 5180 ng·h/mL
MRT inf [2, 5]: 28.1 ± 4.81 h
Tmax ([2]; female, Sprague-Dawley, rat, plasma, po, rats, control: vehicle once a day for 10 days, day 11 digoxin 0.5 mg/kg or GE 120 mg/kg ig, read-out: Tmax): 10 ± 4.47 h
half-life ([2]; female, Sprague-Dawley, rat, plasma, po, rats, control: vehicle once a day for 10 days, day 11 digoxin 0.5 mg/kg or GE 120 mg/kg ig, read-out: t1/2 (converted)): 17.2 ± 2.16 h
AUCINF_obs [2, 6]: 27017 ± 2381 ng·h/mL
Cl_F_obs [2, 6]: 0.0037 ± 0.0003 L/h
Increase of AUC (AUC0-∞) by 10 continuous days administration of SLE ([2]; rats, SLE 500 mg/kg x 10 days vs vehicle, GE ig on day 11): 1.82 fold
AUCINF_obs [2, 7]: 14324 ± 5178 ng·h/mL
Cl_F_obs [2, 7]: 0.0079 ± 0.0035 L/h
half-life ([3]; female, Sprague-Dawley, rat, plasma, po, rats, control: single vehicle (0.5% sodium CMC), 2 h later digoxin 0.5 mg/kg or GE 120 mg/kg ig, read-out: t1/2 (converted)): 13.3 ± 2.43 h
AUC [3, 8]: 14300 ± 2380 ng·h/mL
Cmax [3, 8]: 491 ± 61.4 ng/mL
AUC(0-inf) [3, 8]: 14400 ± 2470 ng·h/mL
MRT inf [3, 8]: 23.1 ± 4.31 h
Tmax ([3]; female, Sprague-Dawley, rat, plasma, po, rats, control: single vehicle, 2 h later digoxin 0.5 mg/kg or GE 120 mg/kg ig, read-out: Tmax): 7.5 ± 1 h
AUC [3, 9]: 18500 ± 5780 ng·h/mL
Cmax [3, 9]: 651 ± 127 ng/mL
AUC(0-inf) [3, 9]: 18500 ± 5730 ng·h/mL
MRT inf [3, 9]: 23.5 ± 2.68 h
Tmax ([3]; female, Sprague-Dawley, rat, plasma, po, rats, single SLE 500 mg/kg ig, 2 h later digoxin 0.5 mg/kg or GE 120 mg/kg ig, read-out: Tmax): 11 ± 2 h
half-life ([3]; female, Sprague-Dawley, rat, plasma, po, rats, single SLE 500 mg/kg ig, 2 h later digoxin 0.5 mg/kg or GE 120 mg/kg ig, read-out: t1/2 (converted)): 11.3 ± 2.74 h
Cl_F_obs ([3]; rats, control: single vehicle, 2 h later digoxin 0.5 mg/kg or GE 120 mg/kg ig): 0.007 ± 0.001 L/h
Cl_F_obs ([3]; rats, single SLE 500 mg/kg ig, 2 h later digoxin 0.5 mg/kg or GE 120 mg/kg ig): 0.006 ± 0.002 L/h
Effect of SLE treatment on Cmax [3, 10]: significantly enhanced
Increase of AUC (AUC0-∞) by coadministration of SLE [3, 10]: 1.29 fold
Structure (SMILES): CC(C)=CCC[C@](C)(O[C@@H]1O[C@H](CO[C@@H]2O[C@H](CO)[C@@H](O)[C@H](O)[C@H]2O)[C@@H](O)[C@H](O)[C@H]1O)[C@H]1CC[C@]2(C)[C@@H]1[C@H](O)C[C@@H]1[C@@]3(C)CC[C@H](O[C@@H]4O[C@H](CO)[C@@H](O)[C@H](O)[C@H]4O[C@@H]4O[C@H](CO)[C@@H](O)[C@H](O)[C@H]4O)C(C)(C)[C@@H]3CC[C@]12C [Rb1, ginsenoside Rb1]

Increase of intracellular concentration by SLE ([1]; 2.0 µg/mL SLE): 1.9 fold
Increase of intracellular concentration by SLE ([1]; 10.0 µg/mL SLE): 3.5 fold
Increase of AUC (AUC0-∞) by 10 continuous days administration of SLE ([2]; female, Sprague-Dawley, rat, in vivo): 1.16 fold
t1/2 [2, 11]: 20.81 ± 9.64 h
Tmax [2, 12]: 11.2 ± 1.79 h
half-life [2, 13]: 26.8 ± 3.08 h
Tmax [3, 11]: 9.00 ± 2.00 h
t1/2 [3, 11]: 16.90 ± 2.14 h
Tmax [3, 12]: 9.5 ± 3 h
half-life [3, 13]: 17.3 ± 4.54 h
Structure (SMILES): CC(C)=CCC[C@](C)(O[C@@H]1O[C@H](CO[C@@H]2O[C@@H](CO)[C@H](O)[C@H]2O)[C@@H](O)[C@H](O)[C@H]1O)[C@H]1CC[C@]2(C)[C@@H]1[C@H](O)C[C@@H]1[C@@]3(C)CC[C@H](O[C@@H]4O[C@H](CO)[C@@H](O)[C@H](O)[C@H]4O[C@@H]4O[C@H](CO)[C@@H](O)[C@H](O)[C@H]4O)C(C)(C)[C@@H]3CC[C@]12C [Rc, ginsenoside Rc]
